Assay results reported in US7393939B2, “Placental organic anion transporter and gene thereof” (Japan Science and Technology Corporation, priority 1999, dated 2008).
“Also recorded” adds a separate entry of the source. Counter-ions that a name gives are not always drawn. Like-named read-outs stand apart in the source and are kept apart here.

Key:
Type in all cases: cell-based
[1] = target: T1, OAT4 (Homo sapiens, UniProt Q9NSA0); test: Inhibition experiment: ^3H-estrone sulfate uptake in OAT4 cRNA-injected oocytes with various compounds; conditions: 50 nM ^3H-estrone sulfate; 500 μM unlabeled compound; FIG. 4
T1 construct: cRNA (an RNA complementary to cDNA) was prepared from a plasmid containing this cDNA; expressed in transfected cells; host or cells: Xenopus laevis oocytes injected with OAT4 cRNA (transcribed in vitro with T7 RNA polymerase from plasmid pZL holding the hOAT4 cDNA)
T1 sequence (Q9NSA0 1-550): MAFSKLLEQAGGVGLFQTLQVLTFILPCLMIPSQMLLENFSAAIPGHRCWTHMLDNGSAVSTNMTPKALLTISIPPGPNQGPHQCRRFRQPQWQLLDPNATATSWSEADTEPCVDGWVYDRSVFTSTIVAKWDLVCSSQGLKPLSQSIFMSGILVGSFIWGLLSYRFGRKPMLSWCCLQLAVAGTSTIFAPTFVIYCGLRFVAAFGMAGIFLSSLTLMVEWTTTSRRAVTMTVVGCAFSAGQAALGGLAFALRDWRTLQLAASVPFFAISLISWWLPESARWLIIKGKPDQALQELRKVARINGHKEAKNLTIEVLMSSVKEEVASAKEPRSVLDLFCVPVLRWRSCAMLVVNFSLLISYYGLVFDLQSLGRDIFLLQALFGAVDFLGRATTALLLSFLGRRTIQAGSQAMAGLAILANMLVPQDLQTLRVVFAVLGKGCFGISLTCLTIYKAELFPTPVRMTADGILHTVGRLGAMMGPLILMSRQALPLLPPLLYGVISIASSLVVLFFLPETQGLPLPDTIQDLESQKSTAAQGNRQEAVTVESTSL
Method: Further, in order to investigate the substrate selectivity of OAT4 of the present invention, various ionic substances were added to an incorporation experimental system of ^3H-estrone sulfate and the influence thereby was tested (Inhibition Experiment).
In order to further investigate the substrate selectivity of OAT4, various anionic substances were added to a system in an uptake experiment system of ^3H-estrone sulfate in oocytes into which OAT4 cRNA was injected and the influence was investigated (inhibition experiment). An uptake experiment of ^3H-estrone sulfate was carried out according to the above-mentioned method using oocytes into which OAT4 cRNA was injected. Uptake of 50 nM ^3H-estrone sulfate was measured in the presence and absence of 500 μM of various compounds (unlabeled).

[2] = target: T1, OAT4; test: Inhibitory test of OAT4 by sulfate conjugates and glucuronic acid conjugates; conditions: FIG. 5
[3] = target: T1, OAT4
Method: In order to confirm that the resulting OTA4 has an organic anion transport activity, cRNA (an RNA complementary to cDNA) was prepared from a plasmid containing this cDNA according to a method of Sekine, et al. (Sekine, T., et al., J. Biol. Chem., volume 272, pages 18526-18529, 1997) and injected into oocytes of Xenopus laevis and the oocytes were subjected to an incorporation experiment for various organic anions and organic cations which were labeled with radioisotopes.
From an OAT4 cDNA-containing plasmid was prepared cRNA (an RNA complementary to cDNA) in vitro using a T7 RNA polymerase (Sekine, T., et al., J. Biol. Chem., volume 272, pages 18526-18529, 1997).
The resulting cRNA was injected into oocytes of Xenopus laevis according to the already-reported method (Sekine, T., et al., J. Biol. Chem., volume 272, pages 18526-18529, 1997) and the oocytes were subjected to an incorporation experiment using various labeled organic anions and organic cations.

[4] = target: T1, OAT4; test: Michaelis-Menten kinetic test of organic anion transport by OAT4 in oocytes injected with OAT4 cRNA; conditions: FIG. 2
Method: After that, the above-mentioned oocytes into which OAT4 cRNA was injected was used for checking the changes in the amount of estrone sulfate, dehydroepiandrosterone sulfate and ochratoxin A incorporated by OAT4 of the present invention at various concentrations whereby a Michaelis-Menten dynamic test for an organic anion transport was carried out.
A Michaelis-Menten dynamic test was carried out for an organic anion transport of OAT4. Changes in the uptake amount of various concentrations of estrone sulfate and dehydroepiandrosterone sulfate by OAT4 were tested whereby concentration dependency of those substrates by OAT4 was investigated. The uptake experiment of labeled estrone sulfate and dehydroepiandrosterone sulfate was carried out according to the above-mentioned method using oocytes into which OAT4 cRNA was injected.

[5] = target: T1, OAT4; test: Cation (sodium) dependency of estrone sulfate transport via OAT4 in oocytes; conditions: extracellular sodium substituted with lithium and choline; FIG. 3
Method: Dependency of the OAT4 of the present invention on sodium in an organic anion transport was investigated. Incorporation of estrone sulfate by OAT4 was tested in the presence of various extracellular cations.
Sodium-dependency of OAT4 in an organic anion transport was investigated. Even when extracellular sodium was substituted with lithium and choline, there was no change in the transport of estrone sulfate via OAT4 and it was clarified that OAT4 is an organic anion transporter which is independent on extracellular sodium (refer to FIG. 3).

Compound	inhibition of transport of ^3H-estrone sulfate by OAT4 [1]	also measured
O=C1OC(c2ccc(O)c(S(=O)(=O)O)c2)(c2ccc(O)c(S(=O)(=O)O)c2)c2c(Br)c(Br)c(Br)c(Br)c21 [bromosulfophthalein]	significantly inhibited	
CCCCNc1cc(C(=O)O)cc(S(N)(=O)=O)c1Oc1ccccc1 [bumetanide]	significantly inhibited	
C[C@H](CCC(=O)O)[C@H]1CC[C@H]2[C@@H]3[C@H](O)C[C@@H]4C[C@H](O)CC[C@]4(C)[C@H]3C[C@H](O)[C@]12C [cholic acid]	significantly inhibited	
O=C(O)Cc1ccccc1Nc1c(Cl)cccc1Cl [diclofenac]	significantly inhibited	
CC(C)Cc1ccc(C(C)C(=O)O)cc1 (stereo not drawn) [ibuprofen]	significantly inhibited	
COc1ccc2c(c1)c(CC(=O)O)c(C)n2C(=O)c1ccc(Cl)cc1 [indomethacin]	significantly inhibited	
Nc1cc(N2CCCCC2)nc(N)[n+]1OS(=O)(=O)[O-] [minoxidil sulfate]		interaction with OAT4 (inhibitory test) [2]: all sulfate conjugates except minoxidil sulfate showed an interaction
C[C@@H]1Cc2c(Cl)cc(C(=O)N[C@@H](Cc3ccccc3)C(=O)O)c(O)c2C(=O)O1 [ochratoxin A]		incorporation (uptake) by oocytes expressing OAT4 ([3]; Xenopus laevis oocytes injected with OAT4 cRNA, radiolabeled substrate, FIG. 1, listed as 3H-ochratoxin A): incorporated; also recorded: showed incorporation
CC1(C)S[C@@H]2[C@H](NC(=O)Cc3ccccc3)C(=O)N2[C@H]1C(=O)O [penicillin G]	significantly inhibited	
CCCN(CCC)S(=O)(=O)c1ccc(C(=O)O)cc1 [probenecid]	significantly inhibited	
C[C@H](CCC(=O)NCCS(=O)(=O)O)[C@H]1CC[C@H]2[C@@H]3[C@H](O)C[C@@H]4C[C@H](O)CC[C@]4(C)[C@H]3C[C@H](O)[C@]12C [taurocholic acid]	significantly inhibited	
CC[N+](CC)(CC)CC [tetraethylammonium]	did not show an inhibiting action; also recorded: did not show any inhibiting action	incorporation (uptake) by oocytes expressing OAT4 [3]: no incorporation was noted
O=C(O)[C@H]1O[C@@H](Oc2cccc3ccccc23)[C@H](O)[C@@H](O)[C@@H]1O [α-naphthyl-β-glucuronide]		interaction with OAT4 (inhibitory test) [2]: only a weak interaction with OAT4 except α-naphthyl-β-glucuronide
dehydroepiandrosterone sulfate		incorporation (uptake) by oocytes expressing OAT4 ([3]; Xenopus laevis oocytes injected with OAT4 cRNA, radiolabeled substrate, FIG. 1, listed as 3H-dehydroepiandrosterone sulfate): incorporated; also recorded: showed incorporation
estrone sulfate		incorporation (uptake) by oocytes expressing OAT4 ([3]; Xenopus laevis oocytes injected with OAT4 cRNA, radiolabeled substrate, FIG. 1, listed as 3H-estrone sulfate): incorporated; also recorded: showed incorporation; Km [4]: 1.01 ± 0.15 µM; change in transport of estrone sulfate via OAT4 on cation substitution [5]: no change
